Where a name gives a salt, the structure may show the parent alone.
Experiments:
rh beta tryptase = biological target: T1, rh beta tryptase (Homo sapiens, UniProt P20231); test: Tryptase inhibition test (cleavage of N-p-tosyl-Gly-Pro-Lys-para-nitroaniline, p-nitroaniline measured at 405 nm); type: biochemical; settings: pH 7.4, 37° C.; for IC50: concentration at which 50% of the tryptase enzyme activity is inhibited, substrate 0.6 mM
T1 construct: purchased Promega
How it was run: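 Recombinant human beta tryptase (0.91 U/ml) in 100 mM Tris HCl pH 7.4 with 5 mM calcium and 100 mg/ml heparin; compounds pre-incubated 5 min, then 0.6 mM tosyl-Gly-Pro-Lys-pNA added, 5 min at 37 °C. p-Nitroaniline read at 405 nm; % inhibition at 10 μM, IC50 determined when inhibition exceeded 70%.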

[1] = inhibition of rh beta tryptase at 10 μM test substance, substrate N-p-tosyl-Gly-Pro-Lys-para-nitroaniline 0.6 mM, 5 minutes

T1 sequence (P20231 31-275): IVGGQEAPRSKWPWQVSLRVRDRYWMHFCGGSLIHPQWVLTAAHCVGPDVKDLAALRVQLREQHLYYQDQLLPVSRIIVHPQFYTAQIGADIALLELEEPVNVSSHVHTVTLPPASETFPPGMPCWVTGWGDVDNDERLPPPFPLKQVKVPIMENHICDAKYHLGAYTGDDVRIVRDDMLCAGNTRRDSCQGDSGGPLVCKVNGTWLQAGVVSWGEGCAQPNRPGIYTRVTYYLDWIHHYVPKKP

melting point	Compound	further results
> 220 °C	Cn1c(CCc2ccc(C(=N)N)cc2)nc2cc(C(=O)N(CCC(=N)N)Cc3cnc4ccccc4c3)ccc21 (as salt: hydrochloride) [Example 8, 2-[2-(4-Amidinophenyl)-ethyl]-1-methyl-benzimidazol-5-yl-carboxylic Acid-N-(2-amidinoethyl)-N-(quinolin-3-yl-methyl)-amide-dihydrochloride]	
> 220 °C	CN(Cc1ccc(C(=N)N)cc1)C(=O)c1ccc2c(c1)nc(CCc1ccc(C(=N)N)cc1)n2C (as salt: hydrochloride) [Example 4, 2-[2-(4-Amidinophenyl)-ethyl]-1-methyl-benzimidazol-5-yl-carboxylic Acid-N-(4-amidino-benzyl)-N-methyl-amide-trihydrochloride]	
140 °C	Cn1c(CCc2ccc(CN)cc2)nc2cc(C(=O)N(CCC(c3ccccc3)c3ccccc3)Cc3ccc(CN)cc3)ccc21 (as salt: hydrochloride) [Example 43, 2-[2-(4-Aminomethyl-phenyl)-ethyl]-1-methyl-benzimidazol-5-yl-carboxylic Acid-N-(4-aminomethylbenzyl)-N-(3,3-diphenylpropyl)-amide-dihydrochloride]	
> 220 °C	CN(C(=O)c1ccc2c(c1)nc(CCc1ccc(C(=N)N)cc1)n2C)c1cccnc1 (as salt: hydrochloride) [Example 18, 2-[2-(4-Amidinophenyl)-ethyl]-1-methyl-benzimidazol-5-yl-carboxylic Acid-N-methyl-N-(3-pyridyl)-amide-hydrochloride]	
> 220 °C	Cn1c(CCc2ccc(C(=N)N)cc2)nc2cc(C(=O)N(CCC(=N)N)Cc3ccccc3)ccc21 (as salt: hydrochloride) [Example 9, 2-[2-(4-Amidinophenyl)-ethyl]-1-methyl-benzimidazol-5-yl-carboxylic Acid-N-(2-amidinoethyl)-N-benzyl-amide-dihydrochloride]	
185 °C	Cn1c(CCc2ccc(C(=N)N)cc2)nc2cc(C(=O)NCCC(c3ccccc3)c3ccccc3)ccc21 (as salt: hydrochloride)	
195 to 200 °C	CC(C)N(CCC(=N)N)C(=O)c1ccc2c(c1)nc(CCc1ccc(C(=N)N)cc1)n2C (as salt: hydrochloride) [Example 27, 2-[2-(4-Amidinophenyl)-ethyl]-1-methyl-benzimidazol-5-yl-carboxylic Acid-N-(2-amidinoethyl)-N-iso-propyl-amide-dihydrochloride]	
140 °C	Cn1c(CCc2ccc(CN)cc2)nc2cc(C(=O)NCCC(c3ccccc3)c3ccccc3)ccc21 (as salt: hydrochloride) [Example 40, 2-[2-(4-Aminomethyl-phenyl)-ethyl]-1-methyl-benzimidazol-5-yl-carboxylic Acid-N-(3,3-diphenylpropyl)-amide-dihydrochloride]	
> 220 °C	CN(Cc1cccnc1)C(=O)c1ccc2c(c1)nc(CCc1ccc(C(=N)N)cc1)n2C (as salt: hydrochloride) [Example 1, 2-[2-(4-Amidinophenyl)ethyl]-1-methyl-benzimidazol-5-yl-carboxylic Acid-N-(pyridin-3-yl-methyl)-N-methyl-amide-hydrochloride]	
185 to 190 °C	Cn1c(CCc2ccc(C(=N)N)cc2)nc2cc(C(=O)N(CCC(=N)N)CCc3ccccc3)ccc21 (as salt: hydrochloride) [Example 24, 2-[2-(4-Amidinophenyl)-ethyl]-1-methyl-benzimidazol-5-yl-carboxylic Acid-N-(2-amidinoethyl)-N-(2-phenylethyl)-amide-dihydrochloride]	
230 °C	CCOC(=O)C(Cc1ccc(C(=N)N)cc1)N(C)C(=O)c1ccc2c(c1)nc(CCc1ccc(C(=N)N)cc1)n2C (centres unmarked) (as salt: formate) [Example 29, Ethyl 2-{2-[2-(4-Amidinophenyl)-ethyl]-1-methyl-benzimidazol-5-yl-carbonyl-(methylamino)}-3-(4-amidinophenyl)-propionate-formate]	
225 to 228 °C	Cn1c(CCc2ccc(C(=N)N)cc2)nc2cc(C(=O)N(CCC(=N)N)Cc3cccnc3)ccc21 (as salt: hydrochloride) [Example 10, 2-[2-(4-Amidinophenyl)-ethyl]-1-methyl-benzimidazol-5-yl-carboxylic Acid-N-(2-amidinoethyl)-N-(3-pyridylmethyl)-amide-dihydrochloride]	
> 220 °C	Cl.Cl.Cl.Cn1c(CCc2ccc(CN)cc2)nc2cc(C(=O)NCCNc3ccccc3)ccc21	
165 °C	Cn1c(CCc2ccc(C(=N)N)cc2)nc2cc(C(=O)NC(Cc3ccc(C(=N)N)cc3)C(=O)O)ccc21 (centres unmarked) [Example 30, 2-{2-[2-(4-Amidinophenyl)-ethyl]-1-methyl-benzimidazol-5-yl-carbonylamino}-3-(4-amidinophenyl)-propionic Acid-diformate]	
200 to 210 °C	Cn1c(CCc2ccc(C(=N)N)cc2)nc2cc(C(=O)N(CCC(=N)N)C3CCCCCCC3)ccc21 (as salt: hydrochloride) [Example 25, 2-[2-(4-Amidinophenyl)-ethyl]-1-methyl-benzimidazol-5-yl-carboxylic Acid-N-(2-amidinoethyl)-N-cyclooctyl-amide-dihydrochloride]	
222 to 225 °C	Cc1ccc(N(CCC(=N)N)C(=O)c2ccc3c(c2)nc(CCc2ccc(C(=N)N)cc2)n3C)cc1 (as salt: hydrochloride) [Example 26, 2-[2-(4-Amidinophenyl)-ethyl]-1-methyl-benzimidazol-5-yl-carboxylic Acid-N-(2-amidinoethyl)-N-(4-methyl-phenyl)-amide-dihydrochloride]	
	Cc1ccccc1N1CCCN(C(=O)c2ccc3c(c2)nc(CCc2ccc(CN)cc2)n3C)CC1 [Example 41, 2-[2-(4-Aminomethyl-phenyl)-ethyl]-1-methyl-benzimidazol-5-yl-carboxylic Acid-[N′-(2-methyl-phenyl)-diazepide]-hydrochloride]	IC50 (rh beta tryptase): 172 nM
	Cc1cccc(N2CCN(C(=O)c3ccc4c(c3)nc(CCc3ccc(C(=N)N)cc3)n4C)CC2)c1 [Example 47, 2-[2-(4-Amidinophenyl)-ethyl]-1-methyl-benzimidazol-5-yl-carboxylic Acid-[N′-(3-methylphenyl)-piperazide]]	IC50 (rh beta tryptase): 118 nM
	CCOCCCn1c(CCc2ccc(C(=N)N)cc2)nc2cc(C(=O)N(CCN)Cc3cccc(C(F)(F)F)c3)ccc21 [Example 390, 2-[2-(4-amidinophenyl)ethyl]-1-(3-ethoxypropyl)-benzimidazol-5-yl-carboxylic acid-N-(2-aminoethyl)-N-(3-trifluoromethylbenzyl)-amide]	IC50 (rh beta tryptase): 402 nM; inhibition at 10 µM (rh beta tryptase; [1]): 60%
	N=C(N)c1ccc(CCc2nc3cc(C(=O)N(Cc4ccc(CN)cc4)Cc4ccc5ccccc5c4)ccc3n2CCCN2CCOCC2)cc1 [Example 241, 2-[2-(4-amidinophenyl)ethyl]-1-[3-(morpholin-4-yl)-propyl]-benzimidazol-5-yl-carboxylic acid-N-[4-(amino-methyl)-benzyl]-N-(2-naphthylmethyl)-amide]	inhibition at 10 µM (rh beta tryptase; [1]): 69%
	CCCCN(CCCC)CCCn1c(CCc2ccc(C(=N)N)cc2)nc2cc(C(=O)N(Cc3ccc(CN)cc3)Cc3ccc4ccccc4c3)ccc21 [Example 231, 2-[2-(4-amidinophenyl)ethyl]-1-(3-di-n-butylaminopropyl)-benzimidazol-5-yl-carboxylic acid-N-[4-(amino-methyl)-benzyl]-N-(2-naphthylmethyl)-amide]	inhibition at 10 µM (rh beta tryptase; [1]): 54%
	CCc1cccc(N(CCC(=N)N)C(=O)c2ccc3c(c2)nc(CCc2ccc(C(=N)N)cc2)n3C)c1 [Example 22, 2-[2-(4-Amidinophenyl)-ethyl]-1-methyl-benzimidazol-5-yl-carboxylic Acid-N-(2-amidinoethyl)-N-(3-ethyl-phenyl)-amide-dihydrochloride]	IC50 (rh beta tryptase): 56 nM
	CCCCN(CCCC)CCCn1c(CCc2ccc(C(=N)N)cc2)nc2cc(C(=O)N(CCCc3ccccc3)Cc3ccc(CN)cc3)ccc21 [Example 167, 2-[2-(4-amidinophenyl)ethyl]-1-(3-di-n-butylaminopropyl) benzimidazol-5-yl-carboxylic acid-N-[4-(amino-methyl)-benzyl]-N-(3-phenylpropyl)-amide]	inhibition at 10 µM (rh beta tryptase; [1]): 52%
	N=C(N)c1ccc(CCc2nc3cc(C(=O)N(Cc4ccc(CN)cc4)CC4CCCCC4)ccc3n2CCc2ccccc2)cc1 [Example 155, 2-[2-(4-amidinophenyl)ethyl]-1-(2-phenylethyl)-benzimidazol-5-yl-carboxylic acid-N-[4-(amino-methyl)-benzyl]-N-cyclohexylmethyl-amide]	inhibition at 10 µM (rh beta tryptase; [1]): 57%
	Cn1c(CCc2ccc(CN)cc2)nc2cc(C(=O)NCCC(c3ccccc3)c3ccccc3)ccc21 [Example 40, 2-[2-(4-Aminomethyl-phenyl)-ethyl]-1-methyl-benzimidazol-5-yl-carboxylic Acid-N-(3,3-diphenylpropyl)-amide-dihydrochloride]	IC50 (rh beta tryptase): 192 nM
	CCOCCCn1c(CCc2ccc(C(=N)N)cc2)nc2cc(C(=O)N(Cc3ccccc3)Cc3ccc(CN)cc3)ccc21 [Example 102, 2-[2-(4-amidinophenyl)ethyl]-1-(3-ethoxypropyl)-benzimidazol-5-yl-carboxylic acid-N-[4-(amino-methyl)-benzyl]-N-benzyl-amide]	IC50 (rh beta tryptase): 369 nM
	2-[2-(4-amidinophenyl)ethyl]-1-(2-phenylethyl)-benzimidazol-5-yl-carboxylic acid-N-[4-(amino-methyl)-benzyl]-N-(3-pyridyl)-amide [Example 139]	% Inhibition (10 μM) (rh beta tryptase; [1]): 76%
	N=C(N)c1ccc(CCc2nc3cc(C(=O)N(CCN)Cc4ccccc4)ccc3n2CC2CC2)cc1 [Example 298, 2-[2-(4-amidinophenyl)ethyl]-1-cyclopropylmethyl-benzimidazol-5-yl-carboxylic acid-N-(2-aminoethyl)-N-benzyl-amide]	inhibition at 10 µM (rh beta tryptase; [1]): 57%
